Data taken from the supplement of paper PMC10307832.

Tests used:
Assay in all cases: relative viability (nuclei count vs DMSO), 5 days (fraction); higher = more cells survive
NCI-H1666 = system: NCI-H1666
How it was run: (§1)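 The day after seeding in 1536-well plates, lung cancer cell lines were treated by pin tool with a single drug, or with a fixed anchor-drug dose together with five library-drug doses (not always all listed) in √10 steps. After 5 days, a combined fix-and-stain solution (final 0.05% Triton X-100, 1% formaldehyde, 1 ug/ml Hoechst) was added. Nuclei counted on 4× images gave relative viability as treated counts over vehicle counts, reported as the median of duplicate plates.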

NCI-H23 = system: NCI-H23
How it was run: as §1

HCC-78 = system: HCC-78
How it was run: as §1

NCI-H2126 = system: NCI-H2126
How it was run: as §1

NCI-H650 = system: NCI-H650
How it was run: as §1

NCI-H520 = system: NCI-H520
How it was run: as §1

NCI-H661 = system: NCI-H661
How it was run: as §1

LC-2-ad = system: LC-2-ad
How it was run: as §1

RERF-LC-KJ = system: RERF-LC-KJ
How it was run: as §1

HCC-827 = system: HCC-827
How it was run: as §1

NCI-H1915 = system: NCI-H1915
How it was run: as §1

NCI-H2087 = system: NCI-H2087
How it was run: as §1

NCI-H2347 = system: NCI-H2347
How it was run: as §1

EPLC-272H = system: EPLC-272H
How it was run: as §1

COR-L 105 = system: COR-L 105
How it was run: as §1

PC-14 = system: PC-14
How it was run: as §1

H3255 = system: H3255
How it was run: as §1

LCLC-97TM1 = system: LCLC-97TM1
How it was run: as §1

NCI-H647 = system: NCI-H647
How it was run: as §1

NCI-H2405 = system: NCI-H2405
How it was run: as §1

ChaGo-K-1 = system: ChaGo-K-1
How it was run: as §1

NCI-H322M = system: NCI-H322M
How it was run: as §1

201T = system: 201T
How it was run: as §1

`Oc1nc(-c2ccc(C(F)(F)F)cc2)nc2c1CSCC2` [XAV939] + CS(=O)(=O)N1CCN(Cc2cc3nc(-c4cccc5[nH]ncc45)nc(N4CCOCC4)c3s2)CC1 [Pictilisib] (partner 1 µM) gave a relative viability (NCI-H1666; first compound 0.08 µM) of 0.378, a relative viability (NCI-H1666; first compound 0.253 µM) of 0.333 and a relative viability (NCI-H1666; first compound 0.8 µM) of 0.279. It also gave a relative viability (NCI-H1666; first compound 2.53 µM) of 0.411, a relative viability (NCI-H23; first compound 0.08 µM) of 0.46 and a relative viability (NCI-H23; first compound 0.253 µM) of 0.351. It also gave a relative viability (NCI-H23; first compound 0.8 µM) of 0.33, a relative viability (NCI-H23; first compound 2.53 µM) of 0.33 and a relative viability (HCC-78; first compound 0.08 µM) of 0.216. The relative viability (HCC-78; first compound 0.253 µM) was 0.206, the relative viability (HCC-78; first compound 0.8 µM) was 0.161 and the relative viability (HCC-78; first compound 2.53 µM) was 0.213. For the same compound, the relative viability (NCI-H2126; first compound 0.08 µM) was 0.477, the relative viability (NCI-H2126; first compound 0.253 µM) was 0.448 and the relative viability (NCI-H2126; first compound 0.8 µM) was 0.473. It also gave a relative viability (NCI-H2126; first compound 2.53 µM) of 0.406, a relative viability (NCI-H650; first compound 0.08 µM) of 0.916 and a relative viability (NCI-H650; first compound 0.253 µM) of 1.05. For the same compound, the relative viability (NCI-H650; first compound 0.8 µM) was 0.881, the relative viability (NCI-H650; first compound 2.53 µM) was 0.74 and the relative viability (NCI-H520; first compound 0.08 µM) was 0.24. For the same compound, the relative viability (NCI-H520; first compound 0.253 µM) was 0.251, the relative viability (NCI-H520; first compound 0.8 µM) was 0.236 and the relative viability (NCI-H520; first compound 2.53 µM) was 0.227. It also gave a relative viability (NCI-H661; first compound 0.08 µM) of 0.477, a relative viability (NCI-H661; first compound 0.253 µM) of 0.378 and a relative viability (NCI-H661; first compound 0.8 µM) of 0.329. It also gave a relative viability (NCI-H661; first compound 2.53 µM) of 0.267, a relative viability (LC-2-ad; first compound 0.08 µM) of 0.5 and a relative viability (LC-2-ad; first compound 0.253 µM) of 1.13. It also gave a relative viability (LC-2-ad; first compound 0.8 µM) of 0.407, a relative viability (LC-2-ad; first compound 2.53 µM) of 0.428 and a relative viability (RERF-LC-KJ; first compound 0.08 µM) of 0.61. The relative viability (RERF-LC-KJ; first compound 0.253 µM) was 0.457, the relative viability (RERF-LC-KJ; first compound 0.8 µM) was 0.419 and the relative viability (RERF-LC-KJ; first compound 2.53 µM) was 0.366. For the same compound, the relative viability (HCC-827; first compound 0.08 µM) was 1.05, the relative viability (HCC-827; first compound 0.253 µM) was 1.02 and the relative viability (HCC-827; first compound 0.8 µM) was 1.24. It also gave a relative viability (HCC-827; first compound 2.53 µM) of 1.21, a relative viability (NCI-H1915; first compound 0.08 µM) of 1.11 and a relative viability (NCI-H1915; first compound 0.253 µM) of 0.967. For the same compound, the relative viability (NCI-H1915; first compound 0.8 µM) was 0.941, the relative viability (NCI-H1915; first compound 2.53 µM) was 0.921 and the relative viability (NCI-H2087; first compound 0.08 µM) was 0.976. It also gave a relative viability (NCI-H2087; first compound 0.253 µM) of 0.636, a relative viability (NCI-H2087; first compound 0.8 µM) of 0.897 and a relative viability (NCI-H2087; first compound 2.53 µM) of 0.876. The relative viability (NCI-H2347; first compound 0.08 µM) was 0.681, the relative viability (NCI-H2347; first compound 0.253 µM) was 0.636 and the relative viability (NCI-H2347; first compound 0.8 µM) was 0.418. For the same compound, the relative viability (NCI-H2347; first compound 2.53 µM) was 0.523, the relative viability (EPLC-272H; first compound 0.08 µM) was 0.347 and the relative viability (EPLC-272H; first compound 0.253 µM) was 0.36. For the same compound, the relative viability (EPLC-272H; first compound 0.8 µM) was 0.302, the relative viability (EPLC-272H; first compound 2.53 µM) was 0.323 and the relative viability (COR-L 105; first compound 0.08 µM) was 0.371. It also gave a relative viability (COR-L 105; first compound 0.253 µM) of 0.304, a relative viability (COR-L 105; first compound 0.8 µM) of 0.349 and a relative viability (COR-L 105; first compound 2.53 µM) of 0.347. It also gave a relative viability (PC-14; first compound 0.08 µM) of 0.859, a relative viability (PC-14; first compound 0.253 µM) of 0.662 and a relative viability (PC-14; first compound 0.8 µM) of 0.767. For the same compound, the relative viability (PC-14; first compound 2.53 µM) was 0.386, the relative viability (H3255; first compound 0.08 µM) was 0.486 and the relative viability (H3255; first compound 0.253 µM) was 0.374. It also gave a relative viability (H3255; first compound 0.8 µM) of 0.499, a relative viability (H3255; first compound 2.53 µM) of 0.288 and a relative viability (LCLC-97TM1; first compound 0.08 µM) of 0.169. It also gave a relative viability (LCLC-97TM1; first compound 0.253 µM) of 0.198, a relative viability (LCLC-97TM1; first compound 0.8 µM) of 0.165 and a relative viability (LCLC-97TM1; first compound 2.53 µM) of 0.18. It also gave a relative viability (NCI-H647; first compound 0.08 µM) of 0.471, a relative viability (NCI-H647; first compound 0.253 µM) of 0.378 and a relative viability (NCI-H647; first compound 0.8 µM) of 0.381. The relative viability (NCI-H647; first compound 2.53 µM) was 0.51, the relative viability (NCI-H2405; first compound 0.08 µM) was 0.502 and the relative viability (NCI-H2405; first compound 0.253 µM) was 0.526. The relative viability (NCI-H2405; first compound 0.8 µM) was 0.416, the relative viability (NCI-H2405; first compound 2.53 µM) was 0.378 and the relative viability (ChaGo-K-1; first compound 0.08 µM) was 0.629. It also gave a relative viability (ChaGo-K-1; first compound 0.253 µM) of 0.598, a relative viability (ChaGo-K-1; first compound 0.8 µM) of 0.729 and a relative viability (ChaGo-K-1; first compound 2.53 µM) of 0.648. The relative viability (NCI-H322M; first compound 0.08 µM) was 0.572, the relative viability (NCI-H322M; first compound 0.253 µM) was 0.491 and the relative viability (NCI-H322M; first compound 0.8 µM) was 0.541. For the same compound, the relative viability (NCI-H322M; first compound 2.53 µM) was 0.439, the relative viability (201T; first compound 0.08 µM) was 0.673 and the relative viability (201T; first compound 0.253 µM) was 0.593. It also gave a relative viability (201T; first compound 0.8 µM) of 0.583 and a relative viability (201T; first compound 2.53 µM) of 0.525.
